In US20030211183A1, “Skin-improving agent” (Kyowa Hakko Kogyo Co., Ltd., priority 1999, published 2003):

System: Human neonate-derived fibroblasts
Test: Collagen synthesis-promoting activity on human fibroblasts (3H-glycine incorporation)
Type: cell-based
Conditions: 300 μmol/l
Description: 201-271, Kodansha Scientific (1986).
Human neonate-derived fibroblasts (Sanko Junyaku Co., Ltd.) were suspended in DMEM containing 10% fetal bovine serum [Virology, 8, 396 (1959)] and cultured at 37° C. in 5% CO2 to the stationary phase. To the resulting culture were added ^3H-labeled glycine and a test substance, followed by further culturing for 72 hours. After 500 μmol/l phenylmethanesulfonyl fluoride (PMSF) was added to the obtained culture, the cells and the medium were collected, followed by disruption with a sonicator to extract proteins. To the extract were added 100 μmol/l bovine serum albumin (BSA) and 10% trichloroacetic acid (TCA), and the resulting mixture was centrifuged at 3000 rpm for 5 minutes to collect the precipitate. […]
After the reaction mixture was separated by ultrafiltration (molecular weight: 10,000), the radioactivity of the protein fraction in the filtrate (CDP) was measured as the amount of newly synthesized collagen. Then, the radioactivity of the protein fraction which was not filtered (NCDP) was measured, and the collagen synthesis ratio was calculated according to equation 2. The relative collagen synthesis-promoting activity (the change in collagen synthesis) was calculated according to equation 3 as the relative value of the collagen synthesis ratio in the presence of a test substance based on the control. […]

Oc1cc(O)c2c(c1)O[C@H](c1ccc(O)c(O)c1)[C@H](O)[C@H]2c1c(O)cc(O)c2c1O[C@H](c1ccc(O)c(O)c1)[C@H](O)C2 [PB2, procyanidin B-2 [epicatechin-(4β→8)-epicatechin]]
Amount of collagen synthesized compared with control (in words): increased
